Tests used:
[1] = Evaluation of pharmacokinetics in rats; format: in vivo; conditions: rat, plasma, male SD rats, 150 mg/kg single intravenous drop infusion for 30 minutes
Method: • 1) Experimental drug: Compound 1; • 2) Experimental animals: 3 male SD rats aged 7-9 weeks; • 3) Drug preparation: An appropriate amount of the drug was weighed and dissolved in saline to forma 60 mg/mL solution. Experimental Operation:
Animals were administered the drug at a dose of 150 mg/kg and a concentration of 60 mg/mL by a single intravenous drop infusion via the tail vein for 30 minutes. Plasma samples were collected from the animals at 0, 0.0333, 0.0833, 0.25, 0.5, 1, 2, 4, 6, 8 and 24 hours after administration. The LC-MS/MS method was used to determine the drug concentration in the plasma sample, and the kinetic parameters of the tested drug are shown in Table 2: […]

[2] = tested on: Klebsiella pneumoniae ATCC-BAA-1705; test: Drug efficacy in mice (mouse pneumonia model); format: in vivo; conditions: CD-1 mice, read at 24 h, FIG. 2
Method: 21 CD-1 mice were divided into 7 cages, 3 mice per cage, and were injected intraperitoneally with the immunosuppressant cyclophosphamide (150 mpk) on the 4th day.
On the first day, 7 cages of mice were injected intraperitoneally again with the immunosuppressant cyclophosphamide (100 mpk). The strain Kpn ATCC-BAA-1705 (Klebsiella pneumoniae ATCC-BAA-1705) was recovered on a MHA plate. The recovered colonies were picked and dissolved in saline to prepare Kpn ATCC-BAA-1705 bacterial solution with a concentration of 4.00E+08 CFU/mL for later use in mouse lung infection. The amount of bacterial solution infected in the lung of experimental mice was 50 μL/mouse, that is, the inoculation amount was 2.00E+07 CFU/mouse. At 2 h and 24 h infection, the lung tissue of the mice in control group was taken and placed in 5 mL saline, homogenized, and dotted on a plate with gradient dilution.
The specific administration of mice was as follows: • (1) 2 h after infection: At the end of 2 h after infection, the lung tissue of the mice in the first cage was taken and placed in 5 mL saline, homogenized, and dotted on a plate with gradient dilution, two duplications for each mouse. The amount of bacteria loaded in the lung tissue of the mouse was counted. Mice in the third and fourth cages were injected respectively with 30 mpk and 10 mpk compound Plazomicin subcutaneously, mice in the fifth and sixth cages were injected respectively with 30 mpk and 10 mpk compound subcutaneously, and mice in the seventh cage were injected with 100 mpk meropenem subcutaneously. • (2) 10 h after infection: Mice in the third and fourth cages were injected respectively with 30 mpk and 10 mpk plazomicin subcutaneously, mice in the fifth and sixth cages were injected respectively with 30 mpk and 10 mpk compound 1 subcutaneously, and mice in the seventh cage were injected with 100 mpk meropenem subcutaneously. At the end of 24 h infection, the lung tissue of the mice in the second to seventh cages was taken and placed in 5 mL saline, homogenized, and dotted on a plate with gradient dilution, two duplications for each mouse. The amount of bacteria carried in the lung tissue of the mouse was counted, and the experimental results were summarized and shown in FIG. 2.

cochlear hair cells = test: Auditory safety: hair cell staining and counting on the basilar membrane of the cochlea; format: in vivo, guinea pigs
Method: (§1) Healthy adult guinea pigs (150-250 g) were employed as the research objects, and were randomly divided into saline control group, gentamicin group, compound Plazomicin group and Compound 1 group, with 8 animals in each group. Subcutaneous administration is used, and the following assays were carried out during and after the administration for 14 consecutive days: • 1. To analyze the effects of different drugs on the auditory function of guinea pigs, the compound action potential (CAP) of animals was recorded on the 14th day (29th day, i.e., 4 weeks) after administration. The results obtained were analyzed and the changes of the threshold shift, amplitude, latency and other indicators among different treatment groups were compared. • 2. After the different groups of animals were processed and the auditory function data thereof were collected, the cochlea of the animals was taken out for fixation and staining. Surface preparation of basilar membrane of the cochlea on one side was performed to count the loss of hair cells so as to make a cochlea map, and the cochlea on the other side was decalcified and frozen sectioned. The density of spiral ganglion neurons was counted and compared among groups. Research Results: 1. Administration Method and Treatment
(§2) Gentamicin from Dalian Meilun Biotechnology Co., Ltd., and Plazomicin and Compound 1 from WuXi AppTec (WuHan) Co., Ltd. are used, the solution of which were prepared just before use each time by using saline for dissolution to the concentration of 50 mg/mL, and the injection dose was 100 mg/kg body weight. Method: subcutaneous injection, and confirmation of no liquid leakage after each injection.
In order to compare the effects of different drugs on hair cells, hair cell staining and counting on the whole basilar membrane of the cochlea are performed. […] The Plazomicin group had 11.2-28.1% loss of outer hair cells in the high frequency (70-100% from the apical turn) and 16.7-24.2% loss of the outer hair cells at the beginning of the apical turn (10-20%). However, in the Compound 1 group, the loss of outer hair cells only occurred in the low-frequency region (from the top turn −40%), in which the loss rate of outer hair cells was about 2.5-11%, and the outer hair cells were relatively intact in the high frequency area (see FIG. 6 B).

spiral ganglion neurons = test: Auditory safety: density of spiral ganglion neurons; format: in vivo, guinea pigs; conditions: guinea pig, in vivo, sc, 100 mg/kg
Method: as §1, §2
The cochlea of the guinea pig was defined as Turn 1, Turn 2, Turn 3, and Turn 4 from the basal to the apical turn. The spiral ganglion neurons (SGNs) were stained with TuJ on frozen sections, and the density thereof in a specific area were counted and compared between groups. […] Through the two-way ANOVA, there was a significant difference between the groups, F(3, 74)=35.43, p<0.0001 (see FIG. 7).

Structure (SMILES): CN[C@@H]1[C@@H](O)[C@@H](O[C@@H]2[C@@H](O)[C@H](O[C@H]3OC(CNCCOCCONC(=N)N)=CC[C@H]3N)[C@@H](N)C[C@H]2NC(=O)[C@@H](O)CCN)OC[C@]1(C)O [Compound 1]
- AUC ([1]; read-out: Area Under the Curve AUC): 440 µM·h
- clearance ([1]; read-out: Clearance Rate Cl): 0.569 L/h/kg
- half-life ([1]; read-out: Half-Life T1/2 (converted)): 3.62 h
- Cmax ([1]; read-out: Maximum Concentration Cmax): 316 µM
- Vd ([1]; read-out: Volume of Distribution Vd): 1.5 L/kg
- in vivo activity in lung infection model (bacteria in lung tissue) ([2]; 10 mpk and 30 mpk subcutaneously 2 h and 10 h after infection): good in vivo activity
- efficacy at a dose of 10 mpk in lung infection model ([2]; 10 mpk subcutaneously 2 h and 10 h after infection): equivalent to that of Plazomicin at a dose of 30 mpk
- efficacy compared with Plazomicin in lung infection model ([2]; subcutaneously 2 h and 10 h after infection): better than that of Plazomicin
- loss rate of outer hair cells (cochlear hair cells; guinea pig, in vivo, 29 day): 2.5-11%
- damage to inner hair cells (overall) (cochlear hair cells; guinea pig, in vivo, sc, 100 mg/kg): almost undamaged
- hair cell toxicity (overall) (cochlear hair cells; guinea pigs, 100 mg/kg subcutaneous 14 days): significantly lower than that of the Gentamicin and the Plazomicin
- damage to spiral ganglion neurons (SGN density vs Control group) (spiral ganglion neurons): no damage to spiral ganglion neurons
